Columns and labels:
Rattus norvegicus = experiment: Hypotensive activity in po dosed spontaneously hypertensive Wistar-Okamoto rat assessed as dose required to cause 30 mmHg fall of blood pressure administered for 5 days; format: functional; settings: 120 h, read-out: MED
[1] = Toxicity in po dosed mouse assessed as mortality after 7 days; settings: in vivo

SMILES | minimal effective dose (Rattus norvegicus) | LD50 at 168 h [1]
N#CN/C(=N\C1CCCCC1)Nc1ccncc1 | 20 mg/kg | 600 mg/kg
CO/N=C(/Nc1cccnc1)NC(C)(C)C | 50 mg/kg | > 1000 mg/kg
CC(C)(C)N/C(=N\O)Nc1cccnc1 | > 35 mg/kg | 1000 mg/kg
CC(C)C(C)(C)/N=C(\NC#N)Nc1ccncc1 | 20 mg/kg | 1000 mg/kg
CCC(C)(C)N/C(=N\C#N)Nc1ccccc1 | 50 mg/kg | > 1000 mg/kg
CCC(CC)(CC)/N=C(\NC#N)Nc1cccnc1 | 1 mg/kg | > 1000 mg/kg
CCC(C)(CC)/N=C(\NC#N)Nc1cccnc1 | 0.5 mg/kg | > 1000 mg/kg
C=C(C)C/N=C(\NC#N)Nc1cccnc1 | 20 mg/kg | 1000 mg/kg
CCOCC/N=C(\NC#N)Nc1cccnc1 | > 20 mg/kg | 600 mg/kg
CCCCC(CC)C/N=C(\NC#N)Nc1cccnc1 (stereo not drawn) | > 50 mg/kg | > 1000 mg/kg
CC(C)CC(C)(C)/N=C(\NC#N)Nc1ccncc1 | 20 mg/kg | > 1000 mg/kg
CC(C)C(/N=C(\NC#N)Nc1ccncc1)C(C)C | 8 mg/kg | 250 mg/kg
CCC(C)(C)N/C(=N\C#N)Nc1ccc[n+](C)c1.[I-] | 20 mg/kg | > 1000 mg/kg
CCC(CC)N/C(=N\O)Nc1cccnc1 | 50 mg/kg | > 1000 mg/kg
CCC(C)(C)N/C(=N\C#N)Nc1cc(C)nc2ccccc12 | 10 mg/kg | > 1000 mg/kg
CCC(C)(C)N/C(=N\C#N)NCc1ccncc1.O | 20 mg/kg | > 1000 mg/kg
CC(C)(C)C(C)(C)/N=C(\NC#N)Nc1cccnc1 | 50 mg/kg | > 1000 mg/kg
CCC(C)(C)N/C(=N\c1ncccn1)Nc1cccnc1.Cl | > 35 mg/kg | 1000 mg/kg
CCC(C)(CC)/N=C(\NC#N)Nc1ccncc1 | 0.5 mg/kg | 300 mg/kg
CC(C)(C)C/N=C(\NC#N)Nc1ccncc1 | 5 mg/kg | 600 mg/kg
N#CN/C(=N\c1cccnc1)N1CCCCC1 | 20 mg/kg | > 1000 mg/kg
CC(NC(=NC#N)Nc1ccccc1)C(C)(C)C (stereo not drawn) | > 50 mg/kg | > 1000 mg/kg
CCC(CC)/N=C(\NC#N)Nc1cccnc1 | 20 mg/kg | 600 mg/kg
CC(C)(C)N/C(=N\C#N)Nc1cnc2ccccc2c1 | 20 mg/kg | > 1000 mg/kg

SMILES | minimal effective dose (Rattus norvegicus) | LD50 at 168 h [1]
COc1ccc(N/C(=N/C(C)(C)C)NC#N)cn1 | 15 mg/kg | 400 mg/kg
CC(C)CC(C)(C)/N=C(\NC#N)Nc1cccnc1 | 2.5 mg/kg | > 1000 mg/kg
CN(C)c1ccc(N/C(=N/C#N)NC(C)(C)C)cc1 | > 50 mg/kg | > 1000 mg/kg
CC(C)(C)/N=C(\NC#N)Nc1ccc(Cl)nc1Cl | > 50 mg/kg | > 1000 mg/kg
CCN(CC)CC/N=C(\NC#N)Nc1cccnc1 | > 8 mg/kg | 250 mg/kg
N#CN/C(=N\C(C1CC1)C1CC1)Nc1ccncc1 | 10 mg/kg | 600 mg/kg
CC(C)(C)/N=C(\NC#N)Nc1ccc(Cl)cn1 | 25 mg/kg | 800 mg/kg
CCC(C)(C)N/C(=N\S(=O)(=O)c1ccc(C)cc1)Nc1cccnc1 | > 50 mg/kg | > 1000 mg/kg
N#CNC(=N)Nc1cccnc1 | 50 mg/kg | > 1000 mg/kg
CCC(C)(C)N/C(=N\C#N)Nc1ccc[n+]([O-])c1 | 20 mg/kg | > 1000 mg/kg
CCC(/N=C(\NC#N)Nc1ccncc1)C(C)C (stereo not drawn) | 5 mg/kg | 600 mg/kg
CCCCC/N=C(\NC#N)Nc1cccnc1 | 20 mg/kg | > 1000 mg/kg
CC(C)(C)N/C(=N\C#N)Nc1c(Cl)cccc1Cl | > 50 mg/kg | > 1000 mg/kg
CC(C)(C)N/C(=N\C#N)Nc1ccc(O)cc1 | > 50 mg/kg | > 1000 mg/kg
CCC(C)(C)N/C(=N\C(=O)C(F)(F)F)Nc1cccnc1 | > 50 mg/kg | > 1000 mg/kg
CC(C)C(C)(C)/N=C(\NC#N)Nc1cccnc1 | 1 mg/kg | > 1000 mg/kg
CC(/N=C(/NC#N)Nc1cccnc1)C(C)(C)C (stereo not drawn) | 1 mg/kg | 1000 mg/kg
CC(C)(C)CC(C)(C)/N=C(\NC#N)Nc1cccnc1 | 50 mg/kg | > 1000 mg/kg
CC(C)/N=C(\NC#N)Nc1cccnc1 | 2.5 mg/kg | > 1000 mg/kg
COc1ccc(/N=C(\NC#N)NC(C)(C)C)c(OC)n1 | > 50 mg/kg | > 1000 mg/kg
CCC(C)(C)N/C(=N\C#N)NCCCN(C)C | 25 mg/kg | > 1000 mg/kg
CCCC/N=C(\NC#N)Nc1cccnc1 | 20 mg/kg | > 1000 mg/kg
N#CN/C(=N\Cc1ccco1)Nc1cccnc1 | 20 mg/kg | > 1000 mg/kg
CCC(CC)(CC)/N=C(\NC#N)Nc1ccncc1 | 2.5 mg/kg | > 1000 mg/kg

SMILES | minimal effective dose (Rattus norvegicus) | LD50 at 168 h [1]
CCOc1ccccc1N/C(=N/C#N)NC(C)(C)CC | 20 mg/kg | > 1000 mg/kg
CC(/N=C(\NC#N)Nc1ccncc1)C1CC1 (stereo not drawn) | 3 mg/kg | 200 mg/kg
CCC(C)(C)N/C(=N\O)Nc1cccnc1 | > 20 mg/kg | 600 mg/kg
N#CN/C(=N\c1ccccc1)Nc1ccncc1 | 50 mg/kg | > 1000 mg/kg
Cc1nn(C)c(N/C(=N/C#N)NC(C)(C)C)c1Cl | 20 mg/kg | > 1000 mg/kg
CCOC(=O)/N=C(/Nc1cccnc1)NC(C)(C)CC | 20 mg/kg | 600 mg/kg
CC(C)(C)/N=C(\NC#N)Nc1ccncc1 | 2.5 mg/kg | > 1000 mg/kg
N#CN/C(=N\C1CCCCCCC1)Nc1ccncc1 | > 20 mg/kg | 600 mg/kg
CC(C)CC(C)/N=C(\NC#N)Nc1ccncc1 (stereo not drawn) | 35 mg/kg | 1000 mg/kg
Cn1nc(-c2ccc(Cl)cc2)cc1N/C(=N/C#N)NC(C)(C)C | > 50 mg/kg | > 1000 mg/kg
N#CN/C(=N\CCc1ccccc1)Nc1ccncc1 | 20 mg/kg | > 1000 mg/kg
CN1CCN(/C(=N/C#N)NC(C)(C)C)CC1 | > 50 mg/kg | > 1000 mg/kg
CCC/N=C(\NC#N)Nc1cccnc1 | 20 mg/kg | > 1000 mg/kg
CCC(CC)/N=C(\NC#N)Nc1ccncc1 | 2.5 mg/kg | 200 mg/kg
C/N=C(\NC#N)Nc1cccnc1 | > 50 mg/kg | > 1000 mg/kg
Cc1cc(C)c(/N=C(\NC#N)NC(C)(C)C)c(C)n1 | > 50 mg/kg | > 1000 mg/kg
CCC(C)(C)/N=C(\NC#N)Nc1c(C)cc(C)nc1C | > 25 mg/kg | 800 mg/kg
N#CN/C(=N\c1ccccc1)Nc1cccnc1 | 5 mg/kg | > 1000 mg/kg
CC(C)(C)N/C(=N\C#N)NCc1ccccn1 | > 20 mg/kg | 600 mg/kg
CCC(C)(C)N/C(=N\C#N)Nc1ccc(N(C)C)cc1 | > 50 mg/kg | > 1000 mg/kg
CC(C)(C)C(C)(C)/N=C(\NC#N)Nc1ccncc1 | 20 mg/kg | > 1000 mg/kg
CCC(C)/N=C(\NC#N)Nc1cccnc1 (stereo not drawn) | 20 mg/kg | > 1000 mg/kg
N#CN/C(=N\C1CCCC1)Nc1cccnc1 | 20 mg/kg | 1000 mg/kg
N#CN/C(=N\C1CC1)Nc1cccnc1 | 20 mg/kg | > 1000 mg/kg

SMILES | minimal effective dose (Rattus norvegicus) | LD50 at 168 h [1]
N#CN/C(=N\Cc1ccccc1)Nc1ccncc1 | 5 mg/kg | 600 mg/kg
CC(N/C(=N\C#N)NCc1ccncc1)C(C)(C)C (stereo not drawn) | 20 mg/kg | > 1000 mg/kg
CCC(C)(C)N/C(=N\c1cnccn1)Nc1cccnc1 | 25 mg/kg | 800 mg/kg
CC(C)(C)C/N=C(/NC#N)Nc1cccnc1 | 2.5 mg/kg | > 1000 mg/kg
CCCC(C)(C)/N=C(\NC#N)Nc1cccnc1 | 1 mg/kg | > 1000 mg/kg
CC(C)CCCC(C)N/C(=N\C#N)Nc1ccncc1 (stereo not drawn) | 50 mg/kg | > 1000 mg/kg
CCC(C)(C)N/C(=N\C#N)Nc1cc(-c2ccc(Cl)cc2)nn1C | 50 mg/kg | > 1000 mg/kg
CCn1nc(C)cc1N/C(=N/C#N)NC(C)(C)C | 10 mg/kg | > 1000 mg/kg
CCCN(CCC)S(=O)(=O)/N=C(/Nc1cccnc1)NC(C)(C)CC | > 50 mg/kg | > 1000 mg/kg
CCC(C)(C)N/C(=N\C#N)Nc1ccc(OC)cc1 | 50 mg/kg | > 1000 mg/kg
CCC(C)(C)/N=C(\Nc1cccnc1)Nc1nccs1 | 20 mg/kg | > 1000 mg/kg
N#CN/C(=N\CCc1ccccc1)Nc1cccnc1 | 50 mg/kg | > 1000 mg/kg
CC(C)(C)/N=C(\NC#N)Nc1cncc(Br)c1 | 0.5 mg/kg | 600 mg/kg
N#C/N=C(/Nc1ccncc1)NC12CC3CC(CC(C3)C1)C2 | 5 mg/kg | > 1000 mg/kg
CC(C)C(/N=C(\NC#N)Nc1cccnc1)C(C)C | 5 mg/kg | > 1000 mg/kg
N#CN/C(=N\Cc1ccccc1)Nc1cccnc1 | 20 mg/kg | > 1000 mg/kg
CCC(C)(C)N/C(=N\C(N)=O)Nc1cccnc1 | > 50 mg/kg | > 1000 mg/kg
CC(C)(C)/N=C(\NC#N)Nc1cccnc1Cl | 5 mg/kg | > 1000 mg/kg
CC(C)C/N=C(\NC#N)Nc1cccnc1 | 20 mg/kg | > 1000 mg/kg
CCC(C)(C)N/C(=N\C#N)Nc1c(C)cccc1C | 50 mg/kg | > 1000 mg/kg
Cc1cc(C)nc(N/C(=N/C(C)(C)C)NC#N)c1 | > 50 mg/kg | > 1000 mg/kg
CC(C)C(=O)N(/C(=N\C#N)Nc1cccnc1)C(C)(C)C | 10 mg/kg | > 1000 mg/kg

Source: ChEMBL document CHEMBL3272224, “Synthesis and hypotensive activity of N-alkyl-N"-cyano-N'-pyridylguanidines” (J Med Chem, 1978)
